Laboratory results taken from US6989263B1, “Method for identifying and using compounds that inactivate HIV-1 and other retroviruses by attacking highly conserved zinc fingers in the viral nucleocapsid protein” (The United States of America as represented by the …, priority 1994, dated 2006).

Columns and labels:
[1] = target: T1, HIV-1 (MN) p7NC (Human immunodeficiency virus type 1 group M subtype B, UniProt P05888); test: Intrinsic Trp-37 fluorescence quenching of p7NC; assay type: biochemical; conditions: Trp-37 fluorescence, zinc-reconstituted p7NC
T1 construct: The NC protein of HIV-1 (MN) p7NC was expressed in E. coli; made in house; host or cells: E. coli (vector pMAL-c)
Source text: The NC protein of HIV-1 (MN) p7NC was expressed in E. coli. The coding sequence for HIV-1(MN) p7NC was cloned and expressed using an inducible E. coli promoter in the vector pMAL-c (New England Biolabs Inc., Beverly, Mass.). The protein was expressed as a maltose-binding fusion protein and released by proteolysis with Factor Xa. HIV-1(MN) p7NC was purified by HPLC and characterized, including complete amino acid sequence analysis. p7NC was purified by high-pressure liquid chromatography (HPLC) and reconstituted with two equivalents of zinc to generate native protein as described (M. F. Summers et al., Protein Sci. 1, 563 (1992)).
Coordination of Zn^+2 enhances the intrinsic fluorescence of the single tryptophan (Trp-37) in the second zinc finger. […] The initial phase of the reaction with Cu^+2 (T1/2<20 seconds) gave 70% quenching of the original fluorescence, followed by a much slower phase (T1/2 ca. 6 minutes), resulting in a final limiting quenching of 85%.
The first quenching phase was a second order reaction, whereas the second phase was independent of protein concentration or oxidizing species.

[2] = test system: HIV-1MN; test: Effect of NOBA on intact HIV-1MN (p24, zinc, TCIU of pelleted virus); assay type: cell-based; conditions: for Zn: pelleted virus
[3] = test system: HIV-1; conditions: incubation of HIV-1; cited from earlier work
[4] = test system: lymphocytes; conditions: cited from earlier work
[5] = target: HV-1 protease (Human immunodeficiency virus type 1 group M subtype B, UniProt P04585); conditions: cited from earlier work
[6] = test system: genomic RNA; conditions: cited from earlier work
[7] = test system: proviral DNA synthesis; conditions: cited from earlier work
[8] = target: reverse transcriptase enzyme (Human immunodeficiency virus type 1 group M subtype B, UniProt P04585); conditions: cited from earlier work
[9] = target: HIV-1 CCHC zinc finger array (Human immunodeficiency virus type 1 group M subtype B, UniProt P04591); conditions: incubation of HIV-1; cited from earlier work

NC(=O)c1cccc(N=O)c1 [NOBA, 3-nitrosobenzamide]
change in intrinsic fluorescence of p7NC on incubation [1]: rapid biphasic decrease in fluorescence | virus inactivated ([2]; 0.03 mM, ratio of NOBA to zinc fingers 50:1): greater than 99% | tissue culture infectious unit (TCIU/ml) ([2]; NOBA 0.03 mM, 2 hours): 1.0 × 10^3 TCIU/ml | Zn ([2]; NOBA 0.03 mM, 2 hours): 0.21 µg/mL | Zn ([2]; NOBA 0.3 mM, 2 hours): 0.21 µg/mL | Zn ([2]; NOBA 3.0 mM, 2 hours): 0.11 µg/mL | viral inactivation [3]: viral inactivation | bindings of virus to lymphocytes [4]: did not influence | enzymatic activity of HV-1 protease [5]: did not influence | levels of genomic RNA in the inactivated virus [6]: did not influence | proviral DNA synthesis [7]: blocked | effect on the reverse transcriptase enzyme [8]: without direct impairment | zinc loss from the HIV-1 CCHC zinc finger array [9]: loss of zinc
